Results on six compounds are retold here after paper PMC4265539, “Inhibition of Neutrophil Collagenase/MMP-8 and Gelatinase B/MMP-9 and Protection against Endotoxin Shock” (Journal of Immunology Research, 2014).

Data set [1] deals with Swiss mice, LPS endotoxin shock. Nature of the data set: Endotoxin shock mouse model, survival after LPS challenge. The data set is classed as in vivo. On the procedure: The protective effect of all inhibitors was evaluated in a similar way. P2 (90 mg/kg P2) was used at a similar molar concentration as Regasepin 2. The effect of lower dosages of P2 (30 mg/kg and 10 mg/kg) was also evaluated in parallel experiments. The details of the animal experiments, including grouping of mice, number of mice in each group, reagent concentrations, and ways of administration, are shown in Table 2. The peptides were administered intravenously 5 minutes after LPS injection.
The protective effects via intravenous injection were evaluated in groups of 6 mice, intravenously injected with 100 μL (7 mg/mL; 35 mg/kg) Regasepin 2 or Inhibitor 2 (35 mg/kg) 5 minutes after intravenous injection of LPS (200 μg per mouse). The numbers of surviving mice were recorded regularly after LPS administration. Kaplan-Meier survival curves were generated. P values were calculated compared with the survival rates of the negative control group. The experiments were performed two times.
Regasepin 2 via intravenous injection (35 mg/kg) was used as a positive control peptide. 200 μL P2 (15 mg/mL) was administered intraperitoneally (150 mg/kg) 30, 60, or 90 minutes before intravenous LPS challenge (200 μg per mouse) to evaluate the effect of P2 via this administration route. The protective effects of a single intravenous injection of P2 (10 mg/kg) and two times intravenous administration of P2 (10 mg/kg) with 2 hours interval were also included and compared.
Results were represented as mean ± SD. Statistical significance was assessed using statistics software SPSS13.0. Two-way analysis of variance (ANOVA) was used to test for differences between groups. For all statistical comparisons, positive groups were compared with negative controls, and ^* P < 0.05 or ^** P < 0.01 were considered statistically significant.

The conditions of data set [2]: mouse, in vivo, ip, 150 mg/kg.
Description: (§1) The concentration of P2-BSA that was used to coat the plates and the reagent concentration of the P2-specific polyclonal antibody were optimized by two-dimensional serial dilution tests. 96-well microtiter plates were coated with a solution of 6 μg/mL P2-BSA in 0.05 M sodium bicarbonate (pH 9.6) and the plate was kept overnight at 4°C. After washing the plate three times, the plate was blocked with 0.1 M PBS (pH 7.4) containing 10% (V/V) skim milk at 37°C for 1.5 h. To perform the competition ELISA between P2 and the immobilized P2-BSA, P2-specific antibody (1000 times serum dilution) was added to the wells in the presence of plasma or standard samples at 37°C for 1.5 h. After washing the plate three times, 100 μL of horseradish peroxidase-conjugated goat anti-rabbit IgG (1 : 2000) was added and incubated for 1 h at 37°C. After washing three times, the tetramethylbenzidine (TMB) substrate (100 μL/well) was added and the reaction was executed for 15 min. The reactions were stopped with 2 M sulfuric acid (50 μL/well). The absorbance of each well at 450 nm was detected with an automated ELISA reader. The calibration curve was expressed according to the fact that 1-B/B0 are linear with log C (where B0 is the OD value in the absence of P2 in plasma, B is the OD value at serial concentrations of P2 in plasma, and C is the P2 concentration, resp.). The indirect ELISA procedures were conducted in duplicate with a set of standard concentrations of P2 in diluted mouse serum in order to determine the mathematical fitting equation and linear detection range.
(§2) Adult female Swiss mice, 5 animals per group, were used for the pharmacokinetic studies. P2 (90 mg/kg, 30 mg/kg, or 10 mg/kg) was dissolved in sterile 0.9% saline and was administered intravenously. Blood samples were collected through the canthus at 0, 3, 6, 9, 12, 15, and 30 min. For intraperitoneal injection of P2, 150 mg/kg P2 dissolved in 0.9% saline was administered and blood samples were collected through the canthus at 0, 13, 20, 40, 68, 100, 127, and 168 minutes.
(§3) Blood samples were immediately centrifuged (12000 rpm for 30 seconds), and the supernatants were taken and diluted 10, 30, or 300 times with PBS, prewarmed at 80°C in a water bath. The diluted samples were kept at 80°C for another 30 min to remove enzyme activity of the plasma components. Samples were diluted with prewarmed PBS so that the final concentration of P2 was within the linear range of the standard line. After another centrifugation (12000 rpm for 2 min), the diluted samples were analyzed by ELISA to measure the plasma P2 concentrations.
For data set [3] the following is noted: mouse, in vivo.
Description: as §1, §2, §3
The subject of data set [4] is MMP-8. The settings on record: cited from earlier work. The source says:
Table 1 Peptide sequences and their IC50 values in μM against target enzymes. | column: MMP-8

For data set [5], the system named is MMP-9. The settings on record: cited from earlier work. From the text:
Table 1 Peptide sequences and their IC50 values in μM against target enzymes. | column: MMP-9

In data set [6] the test system is TACE. The settings on record: cited from earlier work. From the text: Table 1 Peptide sequences and their IC50 values in μM against target enzymes. | column: TACE
For data set [7] the following is noted: rat; cited from earlier work.
Excerpt: The pharmacokinetics of P2 by intraperitoneal injection was also investigated.
The subject of data set [8] is Swiss mice, LPS endotoxin shock. The note with it: 100 μL (7 mg/mL), 35 mg/kg iv 5 minutes after iv LPS, ref [9]; cited from earlier work. On the procedure:
The protective effect of all inhibitors was evaluated in a similar way. P2 (90 mg/kg P2) was used at a similar molar concentration as Regasepin 2. The effect of lower dosages of P2 (30 mg/kg and 10 mg/kg) was also evaluated in parallel experiments. The details of the animal experiments, including grouping of mice, number of mice in ea ...

Where two headings read alike, the source gives them in different places. Non-standard residues stand in square brackets, D forms with d. Residues, ends and D or L forms follow the SMILES beside them. No end group written: not given here. Bip = N[C@@H](Cc1ccc(-c2ccccc2)cc1)C(=O)O; d3Pal = N[C@H](Cc1cccnc1)C(=O)O

The term IC50 denotes the concentration that gives 50% inhibition. Take `CC[C@H](C)[C@H](NC(=O)CNC(=O)CNC(=O)CNC(=O)CNC(=O)[C@H](CCC(=O)O)NC(=O)CNC(=O)[C@H](CCCNC(=N)N)NC(=O)[C@H](Cc1ccc(-c2ccccc2)cc1)NC(=O)[C@@H](CS)NC(=O)[C@@H](Cc1cccnc1)NC(=O)[C@@H]1CCCN1)C(=O)N[C@H](C(=O)N[C@@H](CCCNC(=N)N)C(=O)N[C@@H](CCCNC(=N)N)C(=O)N[C@@H](C)C(=O)N[C@@H](CC(=O)O)C(=O)N[C@@H](CCCNC(=N)N)C(=O)N[C@@H](C)C(=O)N[C@@H](C)C(=O)N[C@H](C(=O)N1CCC[C@H]1C(=O)O)C(C)C)C(C)C` [P2] (H-P[d3Pal][dC][Bip]RGEGGGGIVRRADRAAVP-OH; N-terminus and C-terminus assumed): the “Survival after two injections (G3) versus single injection (G2)” value in data set [1] (10 mg/kg iv 5 minutes after LPS iv and again 2 hours later, n = 12, Figure 4(a) G3) is listed as “less mice survived”. For the same compound, in data set [1] (single 10 mg/kg iv 5 minutes after LPS iv, n = 12, Figure 4(a) G2), the “Survival versus LPS-treated control group” value is recorded as “significant difference with the LPS-treated control group”. In addition, the level at time molar at 100 min in data set [2] worked out at 1540 nM. Also, in data set [3] (ip, 150 mg/kg), the “Time at which the peak plasma level was reached” value is not above 13 min. The “Time an effective P2 concentration (above 2 μM) remained in plasma” value in data set [3] (iv, 10 mg/kg) was 6 min. The “Time the effective plasma concentration of P2 lasted” value in data set [3] (iv, 90 mg/kg) is recorded as “less than 30 minutes”. Moreover, the IC50 in data set [4] (ref [10]) was 0.35 µM; in data set [5] (ref [10]), 1.36 µM; in data set [6] (ref [10]) it was 1.95 µM.

Take IVRRADRAAVP [ES-2]: the IC50 in data set [4] (ref [10]), in data set [5] (ref [10]) and in data set [6] (ref [10]) was more than 500 µM in each case.

Consider IVRRADRAAVPGGGGRGD [HM-3], for which, in data set [7], the in vivo half-life was 27 min.

For the compound “PRC[Bip]CGE (cysteine pairing not given here) [Regasepin 1]”, the results for the IC50 in data set [4] (ref [8]), in data set [5] (ref [8]) and in data set [6] (ref [8]) were 3 µM, 1.5 µM and 5 µM, respectively.

Regarding “Pro-(D-Pyr)-(D-Cys)-Bip-Arg-Gly-Glu [Inhibitor 2]”, the figures for the IC50 in data set [4] (ref [11]), in data set [5] (ref [11]) and in data set [6] (ref [11]) were 0.8 µM, 2.75 µM and 5.5 µM, respectively.

For “Pro-Pyr-Cys-Bip-Arg-Gly-Glu [Regasepin 2]”, the “Protective effect (survival), positive control” value in data set [1] (35 mg/kg iv 5 minutes after LPS iv, n = 12, Figures 4(b)-4(d)) is reported as “significant protective effect”. Moreover, the IC50 in data set [4] (ref [9]) is 10 µM; in data set [5] (ref [9]) it was 0.8 µM; in data set [6] (ref [9]) it was 1.5 µM. For the same compound, the “Protection from endotoxin shock” value in data set [8] is “protect mice from endotoxin shock”.
